The values that follow come from patent publication US8536196B2, “Substituted 1,3-dioxanes useful as PPAR modulators” (Evolva SA, priority 2007, dated 2013).

One experiment deals with T1, mPPARdeltaLBD (Mus musculus, UniProt P35396).
T1 construct: expressed in transfected cells
T1 sequence (P35396 210-438 limits assumed): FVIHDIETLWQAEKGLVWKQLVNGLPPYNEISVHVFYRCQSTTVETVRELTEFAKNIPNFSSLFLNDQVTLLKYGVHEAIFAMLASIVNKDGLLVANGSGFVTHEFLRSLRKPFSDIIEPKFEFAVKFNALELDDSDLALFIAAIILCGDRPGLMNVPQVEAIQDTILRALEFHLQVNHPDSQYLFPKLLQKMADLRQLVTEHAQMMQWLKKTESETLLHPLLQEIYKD
The experiment in a line: PPARdelta transactivation assay. It is filed as cell-based. The method, then:
This example describes a transactivation assay for determining PPARdelta modulating activity.
DPD and other ligands are tested for their ability to transactivate PPARdelta essentially as described in Example 22.

In experiment [1] the target is T2, full length human PPARdelta (Homo sapiens, UniProt Q03181).
T2 construct: expressed in transfected cells
T2 sequence (Q03181 1-441): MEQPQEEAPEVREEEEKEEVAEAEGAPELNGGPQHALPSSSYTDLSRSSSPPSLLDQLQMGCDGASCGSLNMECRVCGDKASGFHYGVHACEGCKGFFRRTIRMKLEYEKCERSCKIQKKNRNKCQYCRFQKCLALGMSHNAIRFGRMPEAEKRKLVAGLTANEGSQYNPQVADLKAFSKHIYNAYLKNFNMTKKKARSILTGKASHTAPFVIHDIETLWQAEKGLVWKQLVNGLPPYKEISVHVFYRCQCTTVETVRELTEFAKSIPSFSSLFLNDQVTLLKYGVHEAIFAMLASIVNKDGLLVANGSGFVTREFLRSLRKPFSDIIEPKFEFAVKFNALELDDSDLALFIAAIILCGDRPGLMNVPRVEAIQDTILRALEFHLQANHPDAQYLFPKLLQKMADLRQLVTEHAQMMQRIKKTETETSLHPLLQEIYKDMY
Description: Transactivation assay with full length human PPARdelta. It is filed as cell-based.

The target of a further experiment is T3, hRXRαLBD (Homo sapiens, UniProt P19793).
T3 construct: expressed in transfected cells
T3 sequence (P19793 227-458 limits assumed): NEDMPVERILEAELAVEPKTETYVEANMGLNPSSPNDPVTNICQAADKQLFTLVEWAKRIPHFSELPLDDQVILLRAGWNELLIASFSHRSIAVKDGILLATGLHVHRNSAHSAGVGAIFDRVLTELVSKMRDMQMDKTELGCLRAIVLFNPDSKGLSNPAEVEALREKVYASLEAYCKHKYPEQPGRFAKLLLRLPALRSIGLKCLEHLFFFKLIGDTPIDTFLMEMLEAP
Description: RXR transactivation assay. It is filed as cell-based. The method, then: This example describes a retinoic acid X receptor transactivation assay.
Compounds are tested for their ability to transactivate RXR essentially as described in Example 22.

A further experiment has as its system MEFs / 3T3-L1. Description: Adipocyte differentiation induction assay (Oil Red O staining). It is filed as cell-based, mouse. As to the method:
This example describes an assay for determining adipocyte differention. Compounds are tested to see whether they induce adipocyte differentiation and also to see whether they inhibit adipocyte differention.
MEFs were grown in AmnioMax basal medium (Gibco) supplemented with 7.5% Amniomax supplement C-100 (Gibco), 7.5% Fetal Bovine Serum (FBS), 2 mM Glutamine, 62.5 μg/ml penicillin and 100 μg/ml Streptomycin (growth medium). At confluence, MEFs were induced to differentiation in growth medium with the addition of 1 μM dexamethasone (Sigma) 0.5 mM isobutylmethylxanthine (Sigma), 5 μg/ml insulin (Sigma) and 10 μM test compound dissolved in DMSO or DMSO alone. Medium was subsequently renewed every 48 hrs with growth media supplemented with 5 μg/ml Insulin and ligand or DMSO.
Briefly, to test compounds as inducers of adipocyte differentiation, 3T3-L1 are grown to confluence in DMEM with 10% Calf serum (CS), typically in 24 well dishes. At 2 days post confluence (day 0), cells are induced to differentiate with DMEM supplemented with 10% fetal bovine serum (FBS), 1 μM dexamethasone and the test compound (01, 1 and 10 μM). BRL49653 (1.0 μM dissolved in 100% DMSO) is used as a positive control. After 48 h, the cells are re-fed with DMEM containing 10% FBS supplemented with the test compound or the positive control. From day 4, cells are grown in DMEM with 10% FBS and are changed every second day until day 8. At day 8, cells are stained with Oil Red O as described below.
(§1) Cells cultured as described above are used for Oil Red staining. Dishes are washed in PBS and cells were fixed in 3.7% paraformaldehyde for 1 h and stained with oil red O as described in (Hansen et al 1999). Oil red O solution stock solution is prepared by dissolving 0.5 g of Oil Red O (Sigma) in 100 mL of isopropanol. Oil re 0 working solution is prepared by diluting a stock solution with water (6:4) followed by filtration.
Table II summarizes results obtained with different analogs of DPD (SN1), “0” representing similar results to DPD, “−1” representing even less adipocyte differentiation, “+1” representing more adipocyte differentiation (both relative to DPD) and “−” meaning not assayed.

A further experiment relates to 3T3-L1 cells. Description: Inhibition of adipocyte differentiation assay (Oil Red O staining). The class given is cell-based. As to the method:
To test compounds as inhibitors of adipocyte differentiation, 3T3-L1 cells are grown as above until two-day postconfluence (designated day 0), after which the cells are induced to differentiate with DMEM containing 10% fetal bovine serum (FBS), 1 μM dexamethasone (Sigma), 0.5 mM methylisobutylxanthine (Sigma), 1 μg/ml insulin (Roche Molecular Biochemicals) and the test-compound. Cells induced to differentiate in presence of solvent of the test-compounds are used as positive control. After 48 h, the cells are re-fed with DMEM containing 10% FBS supplemented with the test compound or the positive control. From day 4, cells are grown in DMEM with 10% FBS and are changed every second day until day 8. At day 8, cells are stained with Oil Red O as described below.
as §1

The next experiment has as its system human pre-adipocytes. The experiment in a line: Adipocyte differentiation assay using human pre-adipocytes. It is filed as cell-based.
For experiment [2], the system named is human cervical carcinoma cell line (HeLa). Description: Inhibition of cancer cell proliferation (flow cytometry). The class given is cell-based. The conditions noted are these: 48 hours of treatment, read-out: inhibition of proliferation of HeLa cells. As to the method:
A human cervical carcinoma cell line (HeLa) engineered to stably express a recombinant biosensor reporter activity and a non-cancer cell line, HaCaT (Boukamp et al., 1988, J. Cell Biol 106(3):761-771) was used with a Caspa Tag kit (commercially available eg from Chemicon). The detection of proliferation was carried out using a high content screening automated flow cytometer.
DPD (Substance 1) was diluted to 20 μM in cell culture medium without serum adjusted to 1% DMSO. Detection of cellular events was performed in duplicate in 96-well plates after 48 hours of treatment in the FL2 (dilution of a proliferative marker) channels of a HTS flow cytometer (FACS Calibur HTS, Becton Dickenson). At day 1, cells were seeded in 96 well plates. Cells were treated with DPD and the appropriate controls on day 2 and analysis was carried out on day 4.
Background: In flow cytometry, cells or beads pass a laser one at a time.

Turning to `O=C(O)CC/C=C\CC1COC(c2ccccc2Cl)OC1c1ccccc1O` (racemic) [SN1, (Z)-6-(-2-(2-chlorophenyl)-4-(2-hydroxyphenyl)-1,3-dioxan-5-yl)hex-4-enoic acid], the “increase in PPARdelta transactivation” value at mPPARdeltaLBD was “no or little increase in transactivation”. The “activation of full-length hPPARdelta” value in experiment [1] is recorded as “no activation”. Besides, the “increase in RXR transactivation” value at hRXRαLBD is “no transactivation”. The “red staining (Oil Red O) in the induction assay” value with MEFs / 3T3-L1 is given as “very little red staining”. The “inhibition of adipocyte differentiation” value in the experiment on 3T3-L1 cells is on record as “no significant effect”. For the same molecule, the “red staining (Oil Red O), human pre-adipocytes” value in the experiment with human pre-adipocytes is “very little red staining, similar to DMSO”. The inhibition at 20 µM in experiment [2] amounted to 90%.
